The text below walks through data of ChEMBL document CHEMBL1201862, “PubChem BioAssay data set” (2004).

Among the test systems are KM12; SK-MEL-5; NCI-H23; CCRF-CEM; A549; U-251; COLO 205; MDA-MB-435; SNB-75; MCF7; NCI-H226; LOX IMVI; HL-60; MOLT-4; SN12C; SK-MEL-28; UACC-257; ACHN; SK-MEL-2; NCI-H522.
Common to all, as to experiment: NCI-60 cell line screen, 48 h

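Following 48 hours of exposure in 96-well plates, responses at five concentrations were used to interpolate endpoints linearly. GI50 is the concentration that inhibits growth by half.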 Calls of active or inactive are those of the source. No stated cut-off is given here; in the data, active = GI50 up to about 1.1 µM and inactive = higher. Where a SMILES comes first, the peptide text is derived from it. [ ]: non-standard residue; d: D form. Phe(F5) = N[CH](Cc1c(F)c(F)c(F)c(F)c1F)C(=O)O

`O=C(CNc1ccc2c(=S)c3ccccc3[nH]c2c1)Nc1ccccc1-c1ccccc1NC(=O)CNc1ccc2c(=S)c3ccccc3[nH]c2c1`: the GI50 in the test with KM12 is 18.5 µM (inactive); in the test with SK-MEL-5 it was 15.2 µM (inactive); in the test on NCI-H23, 13.8 µM (inactive); with CCRF-CEM, 2.73 µM (inactive); with A549 it was 24.3 µM (inactive); with U-251, 19.6 µM (inactive). Also, the GI50 in the test on COLO 205 was 11.9 µM (inactive); in the test with MDA-MB-435, 24 µM (inactive); in the test with SNB-75, 26.5 µM (inactive); in the test on MCF7, 16.4 µM (inactive); with NCI-H226, 26 µM (inactive); in the test with LOX IMVI it was 19.9 µM (inactive). Further, the GI50 in the test on HL-60 is 2.99 µM (inactive); in the test on MOLT-4 it was 3.96 µM (inactive); with SN12C, 22.2 µM (inactive); in the test with SK-MEL-28, 21.9 µM (inactive); with UACC-257 it was 21 µM (inactive); in the test on ACHN, 15.8 µM (inactive). In addition, the GI50 in the test with SK-MEL-2 was 15.6 µM (inactive); with NCI-H522 it was 6.38 µM (inactive).
In the case of `CCOc1ccc(/N=N/c2ccc3cc(/C(C)=N/NC(=O)/C(C#N)=C\c4ccc(N(CCC#N)CCC#N)cc4)c(=O)oc3c2)cc1`, the GI50 with KM12, in the test on SK-MEL-5, in the test with NCI-H23, with CCRF-CEM, in the test with A549 and in the test on U-251 was > 10 µM (inactive) throughout. Further, the GI50 with COLO 205 was > 10 µM (inactive); in the test on MDA-MB-435, > 10 µM (inactive); in the test on SNB-75 it was 1.86 µM (inactive); with MCF7, > 10 µM (inactive); with NCI-H226 it was > 10 µM (inactive); with LOX IMVI, > 10 µM (inactive). In addition, the GI50 with HL-60, with MOLT-4, with SN12C, in the test on SK-MEL-28, with UACC-257 and in the test on ACHN was > 10 µM (inactive) each time. Besides, the GI50 in the test on SK-MEL-2 and in the test with NCI-H522 was > 10 µM (inactive) each time.
Take `COC(=O)c1c2c(cc3c1CC1(C3)Cc3ccc4c(c3C1=O)CCC4)CCC2` (stereo not given): the GI50 is 2.64 µM (inactive) in the test with KM12; 2.38 µM (inactive) in the test with SK-MEL-5; 3.74 µM (inactive) in the test on NCI-H23; 3.63 µM (inactive) with CCRF-CEM; 4.88 µM (inactive) in the test on A549; 3.33 µM (inactive) with U-251. In addition, the GI50 is 2.37 µM (inactive) in the test with COLO 205; 0.6 µM (active) in the test with MDA-MB-435; 4.33 µM (inactive) with SNB-75; 2.45 µM (inactive) with MCF7; 5.09 µM (inactive) in the test with NCI-H226; 3.9 µM (inactive) with LOX IMVI. Also, the GI50 was 2.52 µM (inactive) in the test on HL-60; 4.41 µM (inactive) in the test with MOLT-4; 4.2 µM (inactive) with SN12C; 6.67 µM (inactive) in the test on SK-MEL-28; 5.04 µM (inactive) with UACC-257; 5.15 µM (inactive) in the test with ACHN. For the same compound, the GI50 with SK-MEL-2 is 3.98 µM (inactive); with NCI-H522, 1.66 µM (inactive).
With `CC(=O)Oc1ccc(C(c2ccc(OC(C)=O)cc2)c2ccccn2)cc1` [BISACODYL], the GI50 is 70.3 µM (inactive) with KM12; 68.4 µM (inactive) in the test with SK-MEL-5; 3.83 µM (inactive) in the test with NCI-H23; 71.1 µM (inactive) with CCRF-CEM; 91.4 µM (inactive) in the test on A549; > 97.5 µM (inactive) in the test with U-251. Also, the GI50 in the test with COLO 205 is 0.406 µM (active); in the test on MDA-MB-435, 76.4 µM (inactive); with SNB-75 it was 28.5 µM (inactive); with MCF7 it was 0.378 µM (active); in the test with NCI-H226 it was 87.3 µM (inactive); with LOX IMVI it was 29.2 µM (inactive). The GI50 was 36.2 µM (inactive) in the test with HL-60; 57 µM (inactive) in the test with MOLT-4; 7.16 µM (inactive) with SN12C; > 100 µM (inactive) in the test with SK-MEL-28; > 87.3 µM (inactive) with UACC-257; 78.7 µM (inactive) with ACHN. Also, the GI50 with SK-MEL-2 was 98.6 µM (inactive); in the test with NCI-H522, 76.7 µM (inactive).
Regarding `CCC(C)C(=O)OC1CC2(C)C(c3ccoc3)OC(=O)CC23OC2(C)OC34C(OC(=O)C(C)C)C3(O)C(OC(=O)C5(C)OC5C)C5(C)CC3(O)C(C)(C5CC(=O)OC)C14O2` (stereo not given), the GI50 was 43 µM (inactive) in the test with KM12; 22.8 µM (inactive) in the test with SK-MEL-5; 54.3 µM (inactive) in the test on NCI-H23; 28.6 µM (inactive) in the test with CCRF-CEM; 34.3 µM (inactive) in the test with A549; 86.1 µM (inactive) in the test on U-251. The GI50 in the test with COLO 205 is 20 µM (inactive); in the test with MDA-MB-435, 83 µM (inactive); with SNB-75, 15.5 µM (inactive); in the test on MCF7, 17.6 µM (inactive); in the test with NCI-H226, 51.6 µM (inactive); with LOX IMVI, 52.7 µM (inactive). For the same compound, the GI50 is 15.6 µM (inactive) in the test with HL-60; 20.7 µM (inactive) with MOLT-4; > 100 µM (inactive) in the test on SN12C; > 100 µM (inactive) in the test on SK-MEL-28; 79.4 µM (inactive) with UACC-257; 37 µM (inactive) in the test with ACHN. Moreover, the GI50 in the test on SK-MEL-2 was 68.7 µM (inactive); in the test on NCI-H522, 37 µM (inactive).
Take `COC(=O)C(CC(C)C)NC(=O)C(Cc1c[nH]cn1)NC(=O)CNC(=O)C(NC(=O)C(C)NC(=O)C(Cc1c[nH]c2ccccc12)NC(=O)C(CCC(=O)O)NC(=O)C(N)Cc1c(F)c(F)c(F)c(F)c1F)C(C)C` (stereo not given) (H-[Phe(F5)]EWAVGHL-OMe; configuration not given here): the GI50 with KM12, in the test with SK-MEL-5, with NCI-H23, in the test on CCRF-CEM, in the test with A549 and in the test on U-251 was > 12.5 µM (inactive) in each case. Moreover, the GI50 was > 12.5 µM (inactive) with COLO 205; > 12.5 µM (inactive) with MDA-MB-435; > 100 µM (inactive) in the test with SNB-75; > 12.5 µM (inactive) in the test with MCF7; > 12.5 µM (inactive) in the test on NCI-H226; > 12.5 µM (inactive) in the test on LOX IMVI. Also, the GI50 with HL-60, with MOLT-4, with SN12C, in the test on SK-MEL-28, in the test on UACC-257 and in the test with ACHN was > 12.5 µM (inactive) throughout. In addition, the GI50 in the test on SK-MEL-2 and in the test on NCI-H522 was > 12.5 µM (inactive) throughout.
For `O=C1Nc2ccccc2/C1=N/NS(=O)(=O)c1ccc(C(=O)O)cc1`, the GI50 in the test on KM12, with SK-MEL-5, with NCI-H23, in the test on CCRF-CEM, in the test with A549 and in the test with U-251 was > 100 µM (inactive) each time. Further, the GI50 with COLO 205, in the test with MDA-MB-435, in the test on SNB-75, with MCF7, with NCI-H226 and in the test with LOX IMVI was > 100 µM (inactive) each time. Besides, the GI50 in the test on HL-60, in the test with MOLT-4, with SN12C, in the test on SK-MEL-28, in the test on UACC-257 and with ACHN was > 100 µM (inactive) each time. For the same compound, the GI50 in the test on SK-MEL-2 and with NCI-H522 was > 100 µM (inactive) in each case.
With `N=C1/C(=C/c2ccccc2)C(=O)N=C2SC=NN12`, the GI50 with KM12, in the test on SK-MEL-5, in the test with NCI-H23, with CCRF-CEM, with A549 and with U-251 was > 100 µM (inactive) throughout. Besides, the GI50 in the test on COLO 205, with MDA-MB-435, with SNB-75, in the test on MCF7, in the test with NCI-H226 and in the test with LOX IMVI was > 100 µM (inactive) in each case. The GI50 in the test on HL-60, in the test on MOLT-4, in the test with SN12C, with SK-MEL-28, in the test with UACC-257 and with ACHN was > 100 µM (inactive) each time. Further, the GI50 in the test on SK-MEL-2 and in the test on NCI-H522 was > 100 µM (inactive) each time.
For the compound `CCOC(=O)c1cc(Br)c(-c2onc(C)c2Br)n1C`, the GI50 in the test on KM12 is 21.8 µM (inactive); with SK-MEL-5 it was 16.9 µM (inactive); with NCI-H23, 47.8 µM (inactive); in the test on CCRF-CEM, 30.7 µM (inactive); in the test with A549 it was 23.3 µM (inactive); in the test with U-251 it was 43.1 µM (inactive). Besides, the GI50 in the test with COLO 205 is 28.4 µM (inactive); in the test on MDA-MB-435, 34.8 µM (inactive); with SNB-75, 18.1 µM (inactive); in the test on MCF7 it was 23.6 µM (inactive); with NCI-H226, 55.2 µM (inactive); in the test with LOX IMVI, 34 µM (inactive). In addition, the GI50 in the test on HL-60 is 11.8 µM (inactive); in the test on MOLT-4, 15 µM (inactive); with SN12C, 23.1 µM (inactive); with SK-MEL-28 it was > 100 µM (inactive); in the test on UACC-257 it was 44.7 µM (inactive); in the test with ACHN, 41.6 µM (inactive). For the same compound, the GI50 in the test with SK-MEL-2 is 36.6 µM (inactive); in the test on NCI-H522, 19.1 µM (inactive).
